IC50 and EC50 data for eight compounds are collected here from US20240246964A1 (Arbutus Biopharma Corporation, priority 2021, published 2024).

Where only a bound is given, the exact number is not on record here.

The target in assay [1] is PD-L1 His protein / PD-1 Fc protein (Homo sapiens (Human), UniProt Q9NZQ7). Put plainly: HTRF Assay (PD-1/PD-L1 interaction). Format: binding. As to conditions: PD-L1 His 6 nM, PD-1 Fc 6 nM. For orientation: In TR-FRET formats the signal depends on donor and acceptor labels being close together.
PD-L1 His protein / PD-1 Fc protein, sequence (Q9NZQ7 19-238): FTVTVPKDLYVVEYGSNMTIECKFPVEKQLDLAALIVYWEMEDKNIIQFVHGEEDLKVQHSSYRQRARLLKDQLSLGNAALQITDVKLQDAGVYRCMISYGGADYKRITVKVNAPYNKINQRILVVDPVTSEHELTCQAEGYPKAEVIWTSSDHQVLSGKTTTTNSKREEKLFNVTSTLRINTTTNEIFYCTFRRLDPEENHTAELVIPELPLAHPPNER
Assay [2] deals with human PD-L1 (Homo sapiens (Human), UniProt Q9NZQ7). Put plainly: T cell activation luciferase reporter cell culture system (T Cell Activation Assay). As to conditions: luciferase reporter assay; PD-L1 aAPC/CHO-K1 cells with PD-1 effector Jurkat T cells. Format: cell-based. For orientation: A reporter such as luciferase makes a cellular process visible.
human PD-L1, sequence (Q9NZQ7 19-290): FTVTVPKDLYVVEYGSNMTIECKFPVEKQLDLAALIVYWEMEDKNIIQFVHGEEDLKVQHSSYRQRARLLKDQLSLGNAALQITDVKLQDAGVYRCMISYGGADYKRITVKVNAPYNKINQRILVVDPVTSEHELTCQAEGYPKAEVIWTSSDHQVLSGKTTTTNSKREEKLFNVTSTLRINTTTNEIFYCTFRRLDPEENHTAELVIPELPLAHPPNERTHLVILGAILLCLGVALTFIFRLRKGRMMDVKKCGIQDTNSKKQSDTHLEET

As to `COc1cc(-c2nccc(-c3cccc(-c4ccc(C5=NCCN5)c(OC)n4)c3Cl)c2Cl)ccc1CNC[C@@H](O)CC(=O)OC(C)C` [Compound 209, isopropyl (S)-4-((4-(3-chloro-4-(2-chloro-3-(5-(4,5-dihydro-1H-imidazol-2-yl)-6-methoxypyridin-2-yl)phenyl)pyridin-2-yl)-2-methoxybenzyl)amino)-3-hydroxybutanoate], the IC50 – broadly, the midpoint of a concentration-inhibition curve – in assay [1] is 22.8 nM. Besides, the concentration for a half-maximal effect (EC50) (usually the concentration needed to bring the measured effect to its halfway point) in assay [2] is at least 10000 nM.

`COc1cc(-c2nccc(-c3cccc(-c4ccc(CNC[C@@H]5CCC(=O)N5)c(OC)n4)c3Cl)c2Cl)cc(F)c1CNC1CC2(C1)CN(C(C)=O)C2` [Compound 210, (S)-5-((((6-(3-(2-(4-(((2-acetyl-2-azaspiro[3.3]heptan-6-yl)amino)methyl)-3-fluoro-5-methoxyphenyl)-3-chloropyridin-4-yl)-2-chlorophenyl)-2-methoxypyridin-3-yl)methyl)amino)methyl)pyrrolidin-2-one] gave an IC50 in assay [1] of 2.12 nM. In assay [2], this compound registered an EC50 of 26.6 nM.

Consider `CNCc1ccc(-c2cccc(-c3ccnc(-c4ccc(CNC(C)C)c(OC)c4)c3Cl)c2Cl)nc1OC` [Compound 211, N-(4-(3-chloro-4-(2-chloro-3-(6-methoxy-5-((methylamino)methyl)pyridin-2-yl)phenyl)pyridin-2-yl)-2-methoxybenzyl)propan-2-amine], for which, in assay [1], the IC50 was found to be 4.2 nM. Further, the response in assay [2] was half-maximal at 56.2 nM (EC50).

In assay [1], `CNCc1ccc(-c2cccc(-c3ccnc(-c4ccc(CNC5CCN(C(C)=O)CC5)c(OC)c4)c3Cl)c2Cl)nc1OC` [Compound 212, 1-(4-((4-(3-chloro-4-(2-chloro-3-(6-methoxy-5-((methylamino)methyl)pyridin-2-yl)phenyl)pyridin-2-yl)-2-methoxybenzyl)amino)piperidin-1-yl)ethan-1-one] gave an IC50 of 2.72 nM. In assay [2], this compound had an EC50 of 20.6 nM.

`CNCc1ccc(-c2cccc(-c3ccnc(-c4ccc(CN5CC6(CNC(=O)C6)C5)c(OC)c4)c3Cl)c2Cl)nc1OC` [Compound 213, 2-(4-(3-chloro-4-(2-chloro-3-(6-methoxy-5-((methylamino)methyl)pyridin-2-yl)phenyl)pyridin-2-yl)-2-methoxybenzyl)-2,6-diazaspiro[3.4]octan-7-one] showed a half-inhibitory concentration (IC50) in assay [1] of 2.73 nM. In assay [2], this compound showed an EC50 of 23.5 nM.

Regarding `COc1cc(-c2nccc(-c3cccc(-c4ccc(CNC[C@H](C)O)c(OC)n4)c3Cl)c2Cl)cc2c1CN(C[C@H](C)O)CC2` [Compound 214, (S)-1-(((6-(2-chloro-3-(3-chloro-2-(2-((S)-2-hydroxypropyl)-8-methoxy-1,2,3,4-tetrahydroisoquinolin-6-yl)pyridin-4-yl)phenyl)-2-methoxypyridin-3-yl)methyl)amino)propan-2-ol], in assay [1], the IC50 came to 4.31 nM. Further, the concentration for a half-maximal effect (EC50) in assay [2] is 27 nM.

`COc1cc(-c2nccc(-c3cccc(-c4ccc(CN[C@H]5C[C@](C)(O)C5)c(OC)n4)c3Cl)c2Cl)cc2c1CN(C[C@H](C)O)CC2` [Compound 215, (1r,3r)-3-(((6-(2-chloro-3-(3-chloro-2-(2-((S)-2-hydroxypropyl)-8-methoxy-1,2,3,4-tetrahydroisoquinolin-6-yl)pyridin-4-yl)phenyl)-2-methoxypyridin-3-yl)methyl)amino)-1-methylcyclobutan-1-ol] showed a half-inhibitory concentration (IC50) in assay [1] of 5.58 nM. This compound also yielded a 50% effective concentration (EC50) in assay [2] of 25.5 nM.

`COc1cc(-c2nccc(-c3cccc(-c4ccc(CNC[C@@H]5CCCO5)c(OC)n4)c3Cl)c2Cl)cc2c1CN(C[C@H](C)O)CC2` [Compound 216, (S)-1-(6-(3-chloro-4-(2-chloro-3-(6-methoxy-5-(((((S)-tetrahydrofuran-2-yl)methyl)amino)methyl)pyridin-2-yl)phenyl)pyridin-2-yl)-8-methoxy-3,4-dihydroisoquinolin-2(1H)-yl)propan-2-ol] showed a half-maximal inhibitory concentration (IC50) in assay [1] of 4.51 nM. Also, in assay [2], the EC50 is 271 nM.
